# Source: article PMC7173930, “EAT-18 is an essential auxiliary protein interacting with the non-alpha nAChR subunit EAT-2 to form a functional receptor” (PLoS Pathogens, 2020)
# “And” between values parts separate entries of the source, which are not always exact repeats. Identical values can stand only once. Like-named read-outs stand apart in the source and are kept apart here.
# What was measured:
# [1] = target: T1, Cel-EAT-2 and Cel-EAT-18c nAChR (Caenorhabditis elegans, UniProt Q9U298); test: Two-electrode voltage-clamp of Cel-EAT-2 + Cel-EAT-18c nAChR expressed in Xenopus oocytes; type: cell-based; settings: for Emax at 100 µM: read-out: current response normalized to the control 100 μM ACh current (Imax); for Hill slope (nH): agonist concentration-response; for EC50: read-out: pEC50 (converted)
# T1 sequence (Q9U298 22-474): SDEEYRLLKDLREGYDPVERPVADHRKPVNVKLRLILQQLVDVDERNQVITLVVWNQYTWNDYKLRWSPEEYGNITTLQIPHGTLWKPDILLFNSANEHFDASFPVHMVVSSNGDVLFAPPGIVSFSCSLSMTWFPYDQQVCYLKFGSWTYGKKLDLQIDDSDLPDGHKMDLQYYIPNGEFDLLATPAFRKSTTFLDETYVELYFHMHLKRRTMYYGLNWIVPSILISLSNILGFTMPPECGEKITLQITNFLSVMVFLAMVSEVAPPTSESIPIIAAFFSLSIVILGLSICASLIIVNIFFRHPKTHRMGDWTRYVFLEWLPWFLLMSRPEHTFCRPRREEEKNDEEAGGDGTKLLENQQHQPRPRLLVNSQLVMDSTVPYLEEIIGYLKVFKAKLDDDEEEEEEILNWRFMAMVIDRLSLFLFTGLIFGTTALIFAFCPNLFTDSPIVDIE
# Asu-EAT-2 nAChR = Asu-EAT-2 nAChR (Ascaris suum, UniProt F1L9Y6); test: cell-based; type: cell-based, A. suum
# [2] = tested on: nAChRs expressed in the pharynx of A. suum; test: tissue or blood; type: cell-based; settings: for % change in membrane conductance (δG) normalized to the ACh δG: normalized to 100 μM ACh (10 s), n≥4; for normalized response (δG) to muscarinic agonists, control ACh = 100%: 100 μM, 10 s application, n=4; for normalized response (δG) to muscarinic agonists, control ACh = 100% / maximal response (δG) of ACh in the presence of antagonist: mean±SE; for Emax: read-out: % change in membrane conductance (δG) normalized to the ACh δG; for mode of antagonism of the pharyngeal ACh response: ACh pEC50 unchanged, maximal response inhibited
# Experimental: A. suum pharyngeal dissections and electrophysiology recordings were adapted from Martin [49]. Briefly, pharynx was dissected out from the head region of the worm and mounted on Sylgard (Sigma-Aldrich Inc., USA)—lined in a double jacketed bath chamber maintained at 28°C. The muscle layer surrounding the anterior 3rd of the pharynx was preserved for anchoring. The intestine attached to the posterior end of the pharynx was used for stretching and pinning down. The preparation was continuously perfused with calcium-free Ascaris Perienteric Fluid-Ringer (calcium-free APF-Ringer) composition (mM): NaCl 23, Na-acetate 110, KCl 24, MgCl2 11, glucose 11, and HEPES 5; NaOH or acetic acid was added to adjust the pH to 7.6. […] The rate of localized perfusion was 3.5–4 ml min^−1 through a 20-gauge needle, which was placed directly above the recording region of the pharynx. […] We used 3 M potassium acetate in our micropipettes to get the final resistances of 4–7 MΩ for the voltage sensing and 0.5–1 MΩ for the current injecting electrode for current-clamp recordings. The current-injecting electrode injected hyperpolarizing step currents of −1000 nA for 500 ms at 0.3 Hz.
# We constructed the sigmoidal concentration-response plots by fitting the data by nonlinear regression to determine the pEC50 and the maximal response (Rmax). Extra sum of squares F-test was used to test statistical differences between pEC50, slope, and maximal response. The significance levels were set to P<0.05.
# In applications containing arecoline and pilocarpine, we used mecamylamine, a nAChR antagonist (30µM) to inhibit nAChRs and to allow only mAChR activation.
# [3] = tested on: A. suum muscarinic receptor; parameters: method as in earlier work; settings: all used at 100 µM; ref 1 Kimber M.J. et al. Int J Parasitol 39: 1215-1222 (2009); cited from earlier work
# [4] = read-out: current response normalized to the control 100 μM ACh current, mean±SEM, n≥5
# [5] = read-out: current response normalized to the control 100 μM ACh current
# [6] = in the presence of mecamylamine 30 μM
# Sequence of Asu-EAT-2 nAChR (F1L9Y6 entry or part of it): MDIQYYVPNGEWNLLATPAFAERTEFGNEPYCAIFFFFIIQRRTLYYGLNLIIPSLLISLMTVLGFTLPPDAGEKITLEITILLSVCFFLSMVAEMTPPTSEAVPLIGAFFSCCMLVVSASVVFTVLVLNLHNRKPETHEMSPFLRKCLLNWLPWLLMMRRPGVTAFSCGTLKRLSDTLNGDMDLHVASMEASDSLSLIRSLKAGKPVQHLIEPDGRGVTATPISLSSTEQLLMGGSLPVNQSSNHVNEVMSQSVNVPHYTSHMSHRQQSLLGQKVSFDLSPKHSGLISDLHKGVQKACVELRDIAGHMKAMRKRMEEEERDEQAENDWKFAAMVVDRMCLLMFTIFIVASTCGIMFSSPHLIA
# Sequence of Asu-EAT-2 nAChR (F1L1D9 entry or part of it, further chain): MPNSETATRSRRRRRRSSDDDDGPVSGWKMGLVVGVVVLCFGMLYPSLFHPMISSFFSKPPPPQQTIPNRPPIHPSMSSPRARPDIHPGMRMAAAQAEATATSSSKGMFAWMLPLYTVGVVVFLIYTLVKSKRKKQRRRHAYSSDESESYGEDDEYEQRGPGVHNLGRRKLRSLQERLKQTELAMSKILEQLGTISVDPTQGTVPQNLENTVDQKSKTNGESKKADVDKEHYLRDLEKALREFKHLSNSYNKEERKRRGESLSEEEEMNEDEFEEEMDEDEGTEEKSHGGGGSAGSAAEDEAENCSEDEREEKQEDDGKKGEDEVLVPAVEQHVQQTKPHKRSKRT
molecule,measurement,setting,value
Clc1ccc(C2CC3CCC2N3)cn1 (stereo not drawn) [epibatidine],Emax at 100 µM,"[1]; agonist 100 μM, mean±SEM, n≥6",25 ± 1.5%
same,Emax,Asu-EAT-2 nAChR; [4],77 ± 4.2%
same,% change in membrane conductance (δG) normalized to the ACh δG,[2]; mean±SEM,31.0±3.0%
O=C1CCCN1CC#CCN1CCCC1 [oxotremorine],response relative to ACh (rank order series of muscarinic agonists),[3],61%
same,"normalized response (δG) to muscarinic agonists, control ACh = 100%",[2],1.8±0.8%
CN1C(=O)[C@]23C[C@H]4C(C)(C)[C@]5(CNc6c5ccc5c6OC=CC(C)(C)O5)C[C@@]41CN2CC[C@@]3(C)O [derquantel],Imax of ACh concentration-response in the presence of antagonist,[1]; antagonist 10 μM,68.4±2.1%
same,mean % inhibition of ACh (100 μM) mediated currents,Asu-EAT-2 nAChR,72.0±3.4%
same,% inhibition of 100 μM ACh membrane conductance (δG),[2],30.6±7.0%
CC(C[N+](C)(C)C)OC(N)=O (stereo not drawn) [bethanechol],response relative to ACh (rank order series of muscarinic agonists),[3],58%
"Cc1ccc(C[N+](C)(C)C)o1 [MFI, 5-methylfurmethiodide]","normalized response (δG) to muscarinic agonists, control ACh = 100%",[2],4.0±0.6%
CC(=O)OC(C)C[N+](C)(C)C (stereo not drawn) [methacholine],current response normalized to the control 100 μM ACh current (Imax),"[1]; agonist 100 μM, mean±SEM, n≥6",73 ± 5.3%
same,Hill slope (nH),[1]; mean±SEM,3.5±1.3
same,Emax at 100 µM,"[1]; agonist 100 μM, mean±SEM, n≥6",73 ± 5.3%
same,EC50,[1],79.4 µM
α-bungarotoxin [α-BTX],Imax of ACh concentration-response in the presence of antagonist,[1],86.0±2.4%
same,effect on sensitivity and efficacy of the receptor for ACh,[1],not altered
c1cncc([C@@H]2CCCN2)c1 [nornicotine],Emax at 100 µM,"[1]; agonist 100 μM, mean±SEM, n≥6",0%
"CC(=O)OCC[N+](C)(C)C [ACh, acetylcholine]",Hill slope (nH),[1]; mean±SEM,1.9±0.3 and 1.9 ± 0.2
same,times more potent on Asu-EAT-2 nAChR compared to Cel-EAT-2,Asu-EAT-2 nAChR,≈ 9 times
same,Hill slope (nH),"Asu-EAT-2 nAChR; ACh concentration-response, mean±SEM, n=6",3.5 ± 1.1
same,Emax at 100 µM,Asu-EAT-2 nAChR; [4],100%
same,Emax,[2]; Ascaris suum,100%
same,EC50,"[2]; Ascaris suum, concentration-conductance curve, 1-1000 μM applied for 10 s, mean±SEM, read-out: pEC50 (converted)",10 µM
same,maximal response,[2]; agonist concentration-response curve,105.3 ± 2.5 μS
same,Hill slope (nH),"[2]; concentration-conductance curve, mean±SEM",1.8±0.3
CN1[C@@H](CC(=O)c2ccccc2)CCC[C@H]1C[C@H](O)c1ccccc1 [lobeline],Emax at 100 µM,"[1]; agonist 100 μM, mean±SEM, n≥6",0%
c1cncc([C@@H]2CCCCN2)c1 [anabasine],Emax at 100 µM,"[1]; agonist 100 μM, mean±SEM, n≥6",0%
C[N+](C)(C)CCOC(N)=O [carbachol],Hill slope (nH),[1]; mean±SEM,2.1±0.3
same,Emax at 100 µM,"[1]; agonist 100 μM, mean±SEM, n≥6",37 ± 3.4%
same,EC50,[1],398 µM
same,response relative to ACh (rank order series of muscarinic agonists),[3],80%
α-cotinine,current response normalized to the control 100 μM ACh current (Imax),"[1]; agonist 100 μM, mean±SEM, n≥6",0.0±0.0%
O=c1cccc2n1C[C@@H]1CNC[C@H]2C1 [cytisine],Emax at 100 µM,[1],0%
same,Emax,Asu-EAT-2 nAChR; [5],81 ± 5.2%
same,Emax,[2]; Ascaris suum,71.2 ± 5%
CNC1(C)C2CCC(C2)C1(C)C (stereo not drawn) [mecamylamine],% inhibition of 100 μM ACh membrane conductance (δG),[2],92% and 92.2±1.9%
CC[C@@H]1C(=O)OC[C@@H]1Cc1cncn1C [pilocarpine],response relative to ACh (rank order series of muscarinic agonists),[3],14%
same,"normalized response (δG) to muscarinic agonists, control ACh = 100%",[2]; [6],0.7±0.7%
"CO[C@H]1CC=C2CCN3CCC4=C(CC(=O)OC4)[C@]23C1 [DHβE, Dihydro-β-erythroidine]",effect on sensitivity and efficacy of the receptor for ACh,[1],not altered
same,Imax of ACh concentration-response in the presence of antagonist,[1]; antagonist 30 μM,91.1±4.1%
same,mean % inhibition of ACh (100 μM) mediated currents,Asu-EAT-2 nAChR,66±8.4%
same,% inhibition of 100 μM ACh membrane conductance (δG),[2],17.9±5.0%
same,maximal response (δG) of ACh in the presence of antagonist,[2]; DHβE 30 μM,89.7±3.0 μS
CN1C(=O)[C@]23C[C@H]4C(C)(C)[C@@]5(C[C@@]41CN2CC[C@@]3(C)O)C(=O)Nc1c5ccc2c1OC=CC(C)(C)O2 [paraherquamide],Imax of ACh concentration-response in the presence of antagonist,[1]; antagonist 30 μM,40.2±2.7%
same,% inhibition of 100 μM ACh membrane conductance (δG),[2],37.2±8.7%
same,mode of antagonism of the pharyngeal ACh response,[2]; antagonist 10 μM,non-competitive antagonists
same,maximal response (δG) of ACh in the presence of antagonist,[2]; antagonist 10 μM,87.7±5.7 μS
C[N+]1(C)CCN(c2ccccc2)CC1 [DMPP],current response normalized to the control 100 μM ACh current (Imax),"[1]; agonist 100 μM, mean±SEM, n≥6",failed to respond
same,Emax at 100 µM,"[1]; agonist 100 μM, mean±SEM, n≥6",0%
same,Emax,Asu-EAT-2 nAChR; [4],6.6 ± 1.9%
same,Emax,[2]; Ascaris suum,12 ± 2.9%
c1ccc([C@H]2CN3CCSC3=N2)cc1 [levamisole],Emax at 100 µM,"[1]; agonist 100 μM, mean±SEM, n≥6",0%
same,current response normalized to the control 100 μM ACh current,Asu-EAT-2 nAChR,failed to activate the receptor
same,Emax,Asu-EAT-2 nAChR; [5],0%
same,Emax,[2]; Ascaris suum,1.8 ± 0.61%
C/C(=N/c1ccc(/N=C/c2ccc(/C=N/c3ccc(/N=C(/C)N(C)C)cc3)cc2)cc1)N(C)C [tribendimidine],% change in membrane conductance (δG) normalized to the ACh δG,[2]; mean±SEM,0.0±0.0%
C[N+](C)(CCOc1ccccc1)Cc1ccccc1 [bephenium],current response normalized to the control 100 μM ACh current (Imax),"[1]; agonist 100 μM, mean±SEM, n≥6",did not activate the receptor
same,Emax at 100 µM,"[1]; agonist 100 μM, mean±SEM, n≥6",0%
same,current response normalized to the control 100 μM ACh current,"Asu-EAT-2 nAChR; mean±SEM, n≥5",failed to activate the receptor
same,Emax,Asu-EAT-2 nAChR; [4],0.1 ± 0.1%
same,Emax,[2]; Ascaris suum,7.2 ± 3.5%
C[N+](C)(C)CCCCCC[N+](C)(C)C [hexamethonium],% inhibition of 100 μM ACh membrane conductance (δG),[2],26.8±1.9%
Cc1ccsc1/C=C/C1=NCCCN1C [morantel],current response normalized to the control 100 μM ACh current (Imax),"[1]; agonist 100 μM, mean±SEM, n≥6",did not activate the receptor
same,Emax,Asu-EAT-2 nAChR; [4],0%
same,Emax,[2]; Ascaris suum,0.3 ± 0.3%
C[N+](C)(CCOc1ccccc1)Cc1cccs1 [thenium],Emax,Asu-EAT-2 nAChR; [4],0%
same,Emax,[2]; Ascaris suum,6.1 ± 1.5%
C[N+](C)(C)CCO [choline],Emax,Asu-EAT-2 nAChR; [5],0%
same,Emax,[2]; Ascaris suum,0%
"COc1cc2c3cc1Oc1cc(ccc1O)C[C@@H]1c4c(cc(OC)c(O)c4Oc4ccc(cc4)C[C@@H]3N(C)CC2)CC[N+]1(C)C [d-TC, d-tubocurarine]",inhibition at 30 µM,"[1]; read-out: reduction (inhibition) in the mean ACh response, 30 μM d-tubocurarine",~98%
same,% inhibition of 100 μM ACh membrane conductance (δG),[2],94.6±0.2%
same,mode of antagonism of the pharyngeal ACh response,[2]; antagonist 10 μM,non-competitive antagonists
same,maximal response (δG) of ACh in the presence of antagonist,[2]; antagonist 10 μM,23.0±3.0 μS
CCN1C[C@]2(COC(=O)c3ccccc3N3C(=O)C[C@H](C)C3=O)CC[C@H](OC)[C@@]34[C@@H]5C[C@H]6[C@H](OC)[C@@H]5[C@](O)(C[C@@H]6OC)[C@@](O)([C@@H](OC)[C@H]23)[C@@H]14 [methyllycaconitine],% inhibition of 100 μM ACh membrane conductance (δG),[2],62.6±3.7%
same,mode of antagonism of the pharyngeal ACh response,[2]; antagonist 10 μM,non-competitive antagonists
same,maximal response (δG) of ACh in the presence of antagonist,[2]; antagonist 10 μM,57.0±4.6 μS
CN1CCCN=C1/C=C/c1cccc(O)c1 [oxantel],current response normalized to the control 100 μM ACh current (Imax),"[1]; agonist 100 μM, mean±SEM, n≥6",11 ± 1.3%
same,Emax at 100 µM,"[1]; agonist 100 μM, mean±SEM, n≥6",11 ± 1.3%
same,Emax,Asu-EAT-2 nAChR; [4],3 ± 1.3%
same,Emax,[2]; Ascaris suum,0%
CN1CCCN=C1/C=C/c1cccs1 [pyrantel],Emax at 100 µM,"[1]; agonist 100 μM, mean±SEM, n≥6",0%
same,current response normalized to the control 100 μM ACh current,Asu-EAT-2 nAChR,failed to activate the receptor
same,Emax,Asu-EAT-2 nAChR; [5],0%
same,Emax,[2]; Ascaris suum,0%
COC(=O)C1=CCCN(C)C1 [arecoline],response relative to ACh (rank order series of muscarinic agonists),[3],76%
same,"normalized response (δG) to muscarinic agonists, control ACh = 100%",[2]; [6],2.6±2.0%
C#Cc1cncc([C@@H]2CCCN2C)c1 [SIB 1508Y],Emax at 100 µM,"[1]; agonist 100 μM, mean±SEM, n≥6",0%
